Holding throughout (assay): DTP human tumour cell line panel, 48 h
Assay [1] relates to UACC-257 melanoma.
In assay [2] the test system is K-562 leukemia.
Assay [3] has as its system MALME-3M melanoma.
The test system of assay [4] is SF-268 CNS.
Assay [5] relates to HCT-116 colon.
Assay [6] has as its system SF-539 CNS.
For assay [7], the system named is HT29 colon.
The subject of assay [8] is OVCAR-8 ovarian.
The subject of assay [9] is KM12 colon.
Assay [10] concerns SW-620 colon.
For assay [11], the system named is LXFL 529 NSCLC.
In assay [12] the test system is SF-295 CNS.
The subject of assay [13] is HOP-92 NSCLC.
Assay [14] deals with LOX IMVI melanoma.
The subject of assay [15] is OVCAR-5 ovarian.
The subject of assay [16] is RPMI-8226 leukemia.
In assay [17] the test system is 786-0 renal.
Assay [18] has as its system MDA-N.
For assay [19], the system named is NCI/ADR-RES ovarian.
Assay [20] has as its system HCC-2998 colon.

One may read the TGI as the concentration giving total growth inhibition. Low values mean more potent growth arrest, high ones less potent growth arrest.

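Results reflect a 48-hour exposure of cells in 96-well plates to compound at five concentrations. At the TGI there is no net growth.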

As for `CN1C(=O)CSC1=S`, the concentration for total growth inhibition (TGI) in assay [1], in [2], in assay [3], in assay [4], in assay [5] and in assay [6] was above 100 µM in each case. Also, the TGI in assay [7], in assay [8], in assay [9], in assay [10], in assay [11] and in assay [12] was above 100 µM throughout. For the same molecule, the TGI in assay [13], in [14], in assay [15], in assay [16] and in assay [17] was above 100 µM each time.

Turning to `CCCCCCOc1ccc(Nc2c(O)c3c(c(O)c2Cl)C(=O)C=CC3=O)cc1`, the concentration for total growth inhibition (TGI) is above 8.89 µM in assay [1]; 8.92 µM in assay [2]; 4.04 µM in assay [3]; above 6.89 µM in [18]; above 10 µM in [4]; above 6.12 µM in assay [5]. Further, the TGI was above 6.06 µM in assay [6]; above 7.46 µM in assay [7]; 6.54 µM in assay [19]; above 5.31 µM in assay [8]; above 7.66 µM in assay [9]; 4.73 µM in assay [10]. The TGI in assay [12] is above 10 µM; in [13], 7.14 µM; in assay [14] it was 3.61 µM; in assay [15], above 10 µM; in assay [20], 3.86 µM; in [16], 5.11 µM. For the same molecule, in assay [17], the TGI is above 7.32 µM.

Consider `CC1=NC(=Cc2cc(Br)cc(Br)c2)C(=O)N1n1c(-c2ccccc2)nc2ccccc2c1=O`, for which the TGI in [1], in [2], in assay [3], in [18], in assay [4] and in assay [5] was above 100 µM in each case. Also, the TGI in [6], in assay [7], in [19], in [8], in assay [9] and in assay [10] was above 100 µM throughout. In addition, the concentration for total growth inhibition (TGI) in assay [12], in assay [13], in assay [14], in [15], in [20] and in assay [16] was above 100 µM in each case. The molecule further came in with a TGI in assay [17] above 100 µM.

As for `C/C(=N/NC(=S)Nc1ccc(Cl)cc1)c1cccc(/C(C)=N\NC(=S)Nc2ccc(Cl)cc2)n1`, the TGI in assay [1] was 46.8 µM; in assay [2], 45 µM; in assay [3] it was 36 µM; in assay [18] it was above 100 µM; in assay [4] it was 58.1 µM; in assay [5] it was 22.4 µM. Further, the total growth inhibition concentration (TGI) is 10.6 µM in assay [6]; above 100 µM in [7]; 91.3 µM in [19]; 8.69 µM in [8]; above 100 µM in [9]; above 100 µM in assay [10]. In addition, the TGI is 29.6 µM in assay [12]; above 100 µM in [13]; 26.8 µM in [14]; above 100 µM in assay [15]; above 100 µM in assay [20]; 39.7 µM in [16]. The same molecule yielded a total growth inhibition concentration (TGI) in [17] of 21 µM.

On to `Ic1cccc(/C=C/CN2CCN(CCOC(c3ccccc3)c3ccccc3)CC2)c1`, for which the TGI was 31.4 µM in assay [1]; 23.9 µM in assay [2]; 39.3 µM in assay [3]; 41.9 µM in [18]; above 100 µM in assay [4]; 26.8 µM in assay [5]. In addition, the TGI is 39.8 µM in [6]; 30.3 µM in [7]; 34.7 µM in [19]; 30 µM in [8]; 31 µM in assay [9]; above 100 µM in [10]. The TGI worked out at 33.1 µM in assay [12]; 29.4 µM in assay [13]; 26.8 µM in assay [14]; 36.9 µM in assay [15]; 20.4 µM in [20]; 14.3 µM in [16]. The concentration for total growth inhibition (TGI) in assay [17] was determined as 33.7 µM.

Turning to `S=C1SSC2N=CC=CC12` (centres undefined), the concentration for total growth inhibition (TGI) in assay [1], in assay [2], in assay [3], in [18], in assay [4] and in [5] was above 100 µM throughout. Moreover, the total growth inhibition concentration (TGI) in [6] is above 100 µM; in assay [7] it was above 100 µM; in assay [19] it was above 100 µM; in assay [8] it was above 100 µM; in assay [9], 33 µM; in assay [10] it was above 100 µM. For the same molecule, the concentration for total growth inhibition (TGI) in [12] was above 100 µM; in assay [13], above 100 µM; in [14], above 100 µM; in assay [15], above 100 µM; in [20], 61.4 µM; in assay [16], above 100 µM. In [17], this molecule had a concentration for total growth inhibition (TGI) above 100 µM.

Consider `Nc1nc(Cl)c(N)c(NCC2(CO)CCCC2)n1`, for which the concentration for total growth inhibition (TGI) in assay [1], in assay [2], in assay [3], in assay [18], in [4] and in [5] was above 100 µM throughout. Further, the TGI in assay [6], in [7], in assay [19], in [8], in assay [9] and in assay [10] was above 100 µM in each case. Moreover, the total growth inhibition concentration (TGI) in assay [12], in assay [13], in assay [14], in assay [15], in assay [20] and in [16] was above 100 µM in each case. This molecule also registered a TGI in assay [17] above 100 µM.

As for `c1ccc([P+](CC[P+](c2ccccc2)(c2ccccc2)c2ccccc2)(c2ccccc2)c2ccccc2)cc1`, the TGI in [1] was 11 µM; in assay [2], above 100 µM; in [3], above 63.4 µM; in assay [18], above 61.8 µM; in assay [4], above 100 µM; in assay [5] it was above 100 µM. The TGI in assay [6] is above 44.5 µM; in [7], above 100 µM; in assay [19], above 100 µM; in [8] it was above 100 µM; in assay [9], above 100 µM; in assay [10], above 100 µM. Further, the TGI in [12] is above 100 µM; in assay [13], above 92.3 µM; in assay [14], above 100 µM; in assay [15], above 100 µM; in [20] it was 44.5 µM; in [16], 7.79 µM. This molecule also gave a TGI in [17] above 100 µM.

On to `[N-]=[N+]=NC1C(O)C(CO)OC1n1ccc(=O)[nH]c1=O` (centres undefined), for which the TGI in [1], in assay [2], in assay [3], in [18], in [4] and in assay [5] was above 875 µM each time. Also, the TGI in assay [6], in assay [7], in [19], in [8], in assay [9] and in assay [10] was above 875 µM each time. The TGI in [12], in assay [13], in assay [14], in [15], in assay [20] and in [16] was above 875 µM in each case. In assay [17], the total growth inhibition concentration (TGI) was above 875 µM.

With `Cc1nn(C(=O)c2ccc(Cl)cc2)c2c1C(/C=C/c1ccccc1)SC(N)=N2` (centres undefined), the TGI in assay [1], in assay [2], in assay [3], in assay [18], in [4] and in assay [5] was above 10 µM in each case. In addition, the TGI in [6], in assay [7], in assay [19], in assay [8], in [9] and in assay [10] was above 10 µM throughout. In addition, the TGI in assay [12], in assay [13], in assay [14], in [15], in assay [20] and in [16] was above 10 µM in each case. Besides, the total growth inhibition concentration (TGI) in assay [17] was above 10 µM.

With `O=C(Nc1nncs1)NS(=O)(=O)n1c(=S)sc2ccccc21`, the TGI in assay [1], in assay [2], in assay [3], in assay [18], in assay [4] and in assay [5] was above 100 µM each time. Besides, the total growth inhibition concentration (TGI) in assay [6], in assay [7], in assay [19], in assay [8], in assay [9] and in assay [10] was above 100 µM in each case. The total growth inhibition concentration (TGI) in assay [12], in assay [13], in assay [14], in assay [15], in [20] and in assay [16] was above 100 µM each time. This molecule also gave a concentration for total growth inhibition (TGI) in assay [17] above 100 µM.

For the molecule `COC(=O)CC1C=CC(C)(OC)OO1` (centres undefined), the total growth inhibition concentration (TGI) in [1], in assay [2], in [3], in [18], in assay [4] and in [5] was above 100 µM each time. For the same molecule, the TGI in assay [6], in assay [7], in assay [19], in assay [8], in assay [9] and in [10] was above 100 µM throughout. For the same molecule, the TGI in [12], in assay [13], in assay [14], in [15], in assay [20] and in [16] was above 100 µM in each case. In addition, in assay [17], the TGI was above 100 µM.

Turning to `CC1CC[C@@]2(OC1)OC1C[C@H]3[C@@H]4CC[C@H]5CC(OC6OC(CO)C(O)C(OC7OC(CO)C(OC8OC(CO)C(O)C(OC9OC(CO)C(O)C(O)C9O)C8OC8OC(CO)C(O)C(O)C8O)C(O)C7O)C6O)[C@H](O)CC5(C)[C@H]4CCC3(C)C1[C@@H]2C` (some centres undefined), the concentration for total growth inhibition (TGI) in [1] was determined as 16.9 µM; in assay [2] it was 12.4 µM; in assay [3], 15.1 µM; in assay [18], 13.8 µM; in assay [4] it was 11.3 µM; in assay [5], 11.5 µM. Moreover, the total growth inhibition concentration (TGI) in assay [6] came to 6.76 µM; in [7], 11.1 µM; in assay [19], 12.5 µM; in assay [8] it was 6.67 µM; in assay [9] it was 12.2 µM; in assay [10], 8.32 µM. Besides, the TGI in [12] is 9.39 µM; in [13], 12.1 µM; in [14] it was 9.05 µM; in [15] it was 12.9 µM; in assay [20], 4.71 µM; in assay [16], 12.9 µM. The molecule further registered a total growth inhibition concentration (TGI) in assay [17] of 6.76 µM.

In the case of `CN(C)CC1CCC/C(=C\c2ccc(Cl)cc2)C1=O` (centres undefined), the TGI in assay [1] turned out to be 12.3 µM; in assay [2], 4.89 µM; in assay [3], 4.76 µM; in assay [18], 5.17 µM; in assay [4] it was 8.33 µM; in [5], 3.55 µM. The TGI in [6] is 29.1 µM; in assay [7] it was above 32.7 µM; in [19] it was 18.9 µM; in [8], 17.4 µM; in [9], 3.46 µM; in [10] it was 4.08 µM. Also, the TGI in assay [12] was 29.2 µM; in [13], 10.5 µM; in assay [14], 3.25 µM; in [15], 35.6 µM; in assay [20] it was 18.1 µM; in [16], above 100 µM. The same molecule gave a TGI in assay [17] of 3.22 µM.

Values taken from PubChem BioAssay (NCI).
